US20240350643A1, “PROTEIN DEGRADATION AGENT” (SUZHOU KINTOR PHARMACEUTICALS, INC., priority 2021, published 2024)

How the values were obtained:
HL60 cells = experiment: Anti-proliferation ability of compounds on HL60 cells (CTG); format: cell-based, human; details: Homo sapiens, HL-60, 72 h, 3 days, CellTiter-Glo, read-out: HL60 cells Proliferation inhibitory activity
Procedure: II. Activity test 2: Anti-proliferation ability of compounds on HL60 cells: 1 Cell plating
HL60 cells in the logarithmic growth phase were counted and plated evenly in a 96-well transparent bottom white plate at 20000 cells per well and 100 μL per well.
A certain amount of the compounds was weighed and diluted with DMSO to a 10 mM stock solution. The culture mediums corresponding to the cells were taken, and the drugs were diluted to the concentration required by the test, shaken gently and mixed evenly. 50 μl of the gradient dilution of the diluted compound was added to each well of the plated cells, and 50 μL of 0.1% DMSO was added to the control group. The plate was shaken gently, mixed evenly and incubated in a cell culture incubator for 3 days.
• 3.1 The CellTiter-GLo™ (CTG) reagent was taken in advance from the −20° C. refrigerator and equilibrated to room temperature in the dark (white bottle+brown bottle, 1:1 mixing evenly into the brown bottle, for later use). • 3.2 The 96-well plate was taken out and inspected under a microscope for growth situation. • 3.3 The bottom of the 96-well plate was tagged with white paper, and then the plate was wrapped with tin foil paper, shaken at 37° C. at 300 r for 10 min and mixed evenly. • 3.4 50 ul of CTG detection reagent was added to each well, Luminescence signal was detected using a microplate reader, and the inhibition rate was calculated. IC50 values of the compounds were calculated by XLfit software to evaluate the proliferation inhibitory activity on HL60 cells.

c-Myc protein = biological target: T1, c-Myc protein (Homo sapiens, UniProt P01106); experiment: Ability of compounds to degrade c-Myc protein in HL60 cells (ELISA); format: cell-based; details: HL-60, 1 μM compound, 24 h, read-out: HL60 cells Protein degradation rate (1 μM)
T1 construct: endogenous in cells; host or cells: HL60 cells
T1 sequence (P01106 whole entry): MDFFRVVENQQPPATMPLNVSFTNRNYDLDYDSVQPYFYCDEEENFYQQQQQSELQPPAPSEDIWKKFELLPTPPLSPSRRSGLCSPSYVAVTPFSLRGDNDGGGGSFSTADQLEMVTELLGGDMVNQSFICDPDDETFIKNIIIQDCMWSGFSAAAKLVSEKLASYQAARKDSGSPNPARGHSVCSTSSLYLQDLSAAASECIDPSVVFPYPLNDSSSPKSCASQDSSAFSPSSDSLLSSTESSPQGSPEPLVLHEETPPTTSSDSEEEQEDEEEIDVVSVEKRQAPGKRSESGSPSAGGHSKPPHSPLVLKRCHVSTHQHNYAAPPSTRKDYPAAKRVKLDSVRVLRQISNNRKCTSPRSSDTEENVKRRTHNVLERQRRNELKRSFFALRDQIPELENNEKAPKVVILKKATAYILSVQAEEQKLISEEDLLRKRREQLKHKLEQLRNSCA
Procedure: I Activity test 1: Ability of compounds to degrade c-Myc protein in HL60 cells:
HL60 cells in the exponential growth phase were centrifuged, diluted with fresh culture mediums to 6×10^4 cells/100 μL and plated into a 96-well plate at 100 μL per well.
Preparation of test compounds: the compounds were weighed and diluted with DMSO to a 10 mM stock solution for later use. According to test requirements, drugs were diluted with cell culture mediums, with ten-fold dilutions starting from 10 μM, to achieve 3 concentration gradients: 10 μM, 1 μM and 100 NM; and finally, 1 μL of the drugs (DMSO content: 0.01%) were added to each well. For the blank control group, DMSO was also diluted with cell culture mediums, and finally, 1 μL of the control reagent (DMSO content: 0.01%) was added to each well.
3. Effect of drugs on c-Myc in cells as determined by ELISA
After 24 h of drug action, the culture mediums were removed, and the cells were washed once with ice-cold 1× PBS. PBS was removed, and 100 μL of ice-cold 1× Cell Lysis Buffer plus 1 mM phenylmethylsulfonyl fluoride (PMSF) was added to each well. The plate was incubated on ice for 20 min and centrifuged at 4000 RPM at 4° C. for 10 min for later use.
4. Reagent and antibody preparation in ELISA kit 1× wash buffer • 1). 16 mL of ELISA wash buffer concentrate (25×) was diluted with 384 mL of deionized water or distilled water, labeled as 1× Wash Buffer. • 2). The concentrate and 1× Wash Buffer were stored in the refrigerator. The diluted buffer was used within 14 days.
The cell extraction buffer contains 10 mM Tris (pH 7.4), 100 mM NaCl, 1 mM EDTA, 1 mM EGTA, 1 mM NaF, 20 mM Na4P2O7 2 mM Na3VO4. 1% Triton™ ×-100, 10% glycerol, 0.1% SDS and 0.5% deoxycholate. Immediately before use, PMSF (0.3 M stock solution in DMSO) was added to the buffer to a final concentration of 1 mM.
Standard curve configuration: The standard liquid was diluted using glass or plastic tubes. • 1). Huc-Myc (total) standard liquid (Invitrogen, KH02041) was reconstituted with a standard dilution to 1000 pg/mL. Refer to the standard vial label for instructions. The contents were gently swirled or mixed and then allowed to stand for 10 minutes to ensure complete reconstitution, labeled as 1,000 pg/mL human c-Myc. The standard liquid was used within 1 hour after reconstitution. • 2). 250 μL of standard dilution buffers were added to 7 test tubes respectively labeled 500, 250, 125, 62.5, 31.25, 15,63 and 0 pg/mL. • 3). 250 μL of the 1000 pg/ml standard stock solution was added to the first EP tube to a concentration of 500 pg/mL, vortexed and mixed evenly. 250 μL of the resulting mixture was further pipetted and added to the second EP tube to a concentration of 250 pg/mL. Serial dilutions were performed until the sixth EP tube with a concentration of 15.63 pg/mL. Dilution was not performed on the last EP tube. • 4). The remaining reconstituted standard liquid should be discarded, or aliquoted and frozen at −80° C. for further use. Standards can be frozen and thawed only once without losing immunoreactivity.
1× anti-rabbit IgG HRP solution: 1× anti-rabbit IgG HRP solution was prepared within 15 minutes of use. The anti-rabbit IgG HRP (100×) contained 50% viscous glycerol. To ensure accurate dilutions, the following operations were carried out: 1 For each 8-well test strip used in the test, 10 μl, of the anti-rabbit IgG -IRP (100×) solution was pipetted, wherein the pipette tip was wiped with clean absorbent paper to remove excess solutions, and then the solution was dispensed into a test tube containing 1 mL of HRP diluent and mixed thoroughly. 2. The unused anti-rabbit IgG HRP (100×) was placed in the refrigerator for storage.
50 μL of the standard liquid was added to the appropriate wells and not added to the blank control well. Except for the blank control well, 50 μL of Hu c-Myc (total) detection antibody solution was added to each well and mixed by tapping the side face of the plate. […]

Row | SMILES | IC50 (HL60 cells) | inhibition at 1 µM (c-Myc protein)
1 | O=C1CCC(N2C(=O)c3ccc(C(=O)NC[C@H]4CC[C@H](CNC(=O)Nc5cccc6ncccc56)CC4)cc3C2=O)C(=O)N1 (stereo partly shown) [A50] | 10400 ± 235 nM | 10 to 30%
2 | O=C1CCC(N2C(=O)c3ccc(C(=O)NC[C@H]4CC[C@H](CNC(=O)Nc5nccc6ccccc56)CC4)cc3C2=O)C(=O)N1 (stereo partly shown) [A51] | 336 ± 30 nM | 60 to 90%
3 | O=C1CCC(N2C(=O)c3ccc(C(=O)NC[C@H]4CC[C@H](CNC(=O)Nc5cncc6ccccc56)CC4)cc3C2=O)C(=O)N1 (stereo partly shown) [A52] | 8060 ± 637 nM | 30 to 60%
4 | O=C(Cc1ccccc1)NCc1ccc(CNC(=O)c2ccc3c(c2)C(=O)N(C2CCC(=O)NC2=O)C3=O)cc1 (stereo not shown) [A53] | 1450 ± 280 nM | 60 to 90%
5 | COc1ccccc1CC(=O)NCc1ccc(CNC(=O)c2ccc3c(c2)C(=O)N(C2CCC(=O)NC2=O)C3=O)cc1 (stereo not shown) [A54] | 2330 ± 518 nM | 60 to 90%
6 | COc1cccc(CC(=O)NCc2ccc(CNC(=O)c3ccc4c(c3)C(=O)N(C3CCC(=O)NC3=O)C4=O)cc2)c1 (stereo not shown) [A55] | 181 ± 32.8 nM | 60 to 90%
7 | COc1cccc(CC(=O)NCc2ccc(CNC(=O)c3ccc4c(c3)C(=O)N(C3CCC(=O)NC3=O)C4=O)cc2)c1OC (stereo not shown) [A56] | 666 ± 60.2 nM | 60 to 90%
8 | O=C(Cc1ccccc1Cl)NCc1ccc(CNC(=O)c2ccc3c(c2)C(=O)N(C2CCC(=O)NC2=O)C3=O)cc1 (stereo not shown) [A57] | 214 ± 4.7 nM | 60 to 90%
9 | O=C(Cc1cccc(Cl)c1)NCc1ccc(CNC(=O)c2ccc3c(c2)C(=O)N(C2CCC(=O)NC2=O)C3=O)cc1 (stereo not shown) [A58] | 285 ± 10.7 nM | 60 to 90%
10 | O=C(Cc1ccc(Cl)cc1)NCc1ccc(CNC(=O)c2ccc3c(c2)C(=O)N(C2CCC(=O)NC2=O)C3=O)cc1 (stereo not shown) [A59] | 173 ± 61.3 nM | 60 to 90%
11 | O=C(Cc1cccc(Cl)c1Cl)NCc1ccc(CNC(=O)c2ccc3c(c2)C(=O)N(C2CCC(=O)NC2=O)C3=O)cc1 (stereo not shown) [A60] | 48.5 ± 6 nM | 10 to 30%
12 | O=C(CCc1cccc(Cl)c1Cl)NCc1ccc(CNC(=O)c2ccc3c(c2)C(=O)N(C2CCC(=O)NC2=O)C3=O)cc1 (stereo not shown) [A61] | 108 ± 6.5 nM | 60 to 90%
13 | O=C(CCc1ccccc1Cl)NCc1ccc(CNC(=O)c2ccc3c(c2)C(=O)N(C2CCC(=O)NC2=O)C3=O)cc1 (stereo not shown) [A62] | 320 ± 17.6 nM | 60 to 90%
14 | COc1ccccc1CCC(=O)NCc1ccc(CNC(=O)c2ccc3c(c2)C(=O)N(C2CCC(=O)NC2=O)C3=O)cc1 (stereo not shown) [A63] | 702 ± 33.8 nM | 60 to 90%
15 | O=C(Cc1cccc(F)c1)NCc1ccc(CNC(=O)c2ccc3c(c2)C(=O)N(C2CCC(=O)NC2=O)C3=O)cc1 (stereo not shown) [A64] | 2020 nM | 60 to 90%
16 | O=C(Cc1ccccc1Br)NCc1ccc(CNC(=O)c2ccc3c(c2)C(=O)N(C2CCC(=O)NC2=O)C3=O)cc1 (stereo not shown) [A65] | 473 ± 93.3 nM | 60 to 90%
17 | N#Cc1ccccc1CC(=O)NCc1ccc(CNC(=O)c2ccc3c(c2)C(=O)N(C2CCC(=O)NC2=O)C3=O)cc1 (stereo not shown) [A66] | 1850 ± 1230 nM | 60 to 90%
18 | O=C(Cc1ccccc1C(F)(F)F)NCc1ccc(CNC(=O)c2ccc3c(c2)C(=O)N(C2CCC(=O)NC2=O)C3=O)cc1 (stereo not shown) [A67] | 1070 ± 617 nM | 60 to 90%

Row | SMILES | IC50 (HL60 cells) | inhibition at 1 µM (c-Myc protein)
19 | Cc1ccccc1CC(=O)NCc1ccc(CNC(=O)c2ccc3c(c2)C(=O)N(C2CCC(=O)NC2=O)C3=O)cc1 (stereo not shown) [A68] | 1000 ± 480 nM | 60 to 90%
20 | CC(C)(C(=O)NCc1ccc(CNC(=O)c2ccc3c(c2)C(=O)N(C2CCC(=O)NC2=O)C3=O)cc1)c1ccccc1 (stereo not shown) [A69] | 710 ± 40.1 nM | 60 to 90%
21 | O=C1CCC(N2C(=O)c3ccc(C(=O)NCc4ccc(CNC(=O)C5(c6ccccc6Br)CC5)cc4)cc3C2=O)C(=O)N1 (stereo not shown) [A70] | 374 ± 51.1 nM | 60 to 90%
22 | CN(Cc1ccc(CNC(=O)c2ccc3c(c2)C(=O)N(C2CCC(=O)NC2=O)C3=O)cc1)C(=O)Cc1cccc2ccccc12 (stereo not shown) [A71] | 24.3 ± 8.5 nM | 60 to 90%
23 | CN(Cc1ccc(CNC(=O)c2ccc3c(c2)C(=O)N(C2CCC(=O)NC2=O)C3=O)cc1)C(=O)Cn1c2ccccc2c2cccnc21 (stereo not shown) [A72] | 45.6 ± 3 nM | 60 to 90%
24 | O=C1CCC(N2C(=O)c3ccc(C(=O)NCc4ccc(CNCCc5cccc6ccccc56)cc4)cc3C2=O)C(=O)N1 (stereo not shown) [A73] | 59.3 ± 5.7 nM | 60 to 90%
25 | O=C1CCC(N2C(=O)c3ccc(C(=O)NCc4ccc(CNCCn5c6ccccc6c6cccnc65)cc4)cc3C2=O)C(=O)N1 (stereo not shown) [A74] | 5.5 ± 2.3 nM | 60 to 90%
26 | O=C1CCC(N2C(=O)c3ccc(C(=O)NCc4ccc(COCCc5cccc6ccccc56)cc4)cc3C2=O)C(=O)N1 (stereo not shown) [A75] | 2730 ± 614 nM | 60 to 90%
27 | O=C1CCC(N2C(=O)c3ccc(C(=O)NCc4ccc(COCCn5c6ccccc6c6cccnc65)cc4)cc3C2=O)C(=O)N1 (stereo not shown) [A76] | 432 ± 138 nM | 60 to 90%
28 | CS(=O)(=O)N(CCc1cccc2ccccc12)Cc1ccc(CNC(=O)c2ccc3c(c2)C(=O)N(C2CCC(=O)NC2=O)C3=O)cc1 (stereo not shown) [A77] | 73.4 nM | 60 to 90%
29 | CS(=O)(=O)N(CCn1c2ccccc2c2cccnc21)Cc1ccc(CNC(=O)c2ccc3c(c2)C(=O)N(C2CCC(=O)NC2=O)C3=O)cc1 (stereo not shown) [A78] | 4.6 nM | 60 to 90%
30 | CC(=O)N(CCc1cccc2ccccc12)Cc1ccc(CNC(=O)c2ccc3c(c2)C(=O)N(C2CCC(=O)NC2=O)C3=O)cc1 (stereo not shown) [A79] | 21.7 nM | 60 to 90%
31 | CC(C)C(=O)N(CCc1cccc2ccccc12)Cc1ccc(CNC(=O)c2ccc3c(c2)C(=O)N(C2CCC(=O)NC2=O)C3=O)cc1 (stereo not shown) [A80] | < 3 nM | 60 to 90%
32 | O=C1CCC(N2C(=O)c3ccc(C(=O)NCc4ccc(CN(CCc5cccc6ccccc56)C(=O)C5CC5)cc4)cc3C2=O)C(=O)N1 (stereo not shown) [A81] | < 3 nM | 60 to 90%
33 | CC(=O)N(CCn1c2ccccc2c2cccnc21)Cc1ccc(CNC(=O)c2ccc3c(c2)C(=O)N(C2CCC(=O)NC2=O)C3=O)cc1 (stereo not shown) [A82] | < 3 nM | 60 to 90%
34 | CN(CCc1cccc2ccccc12)Cc1ccc(CNC(=O)c2ccc3c(c2)C(=O)N(C2CCC(=O)NC2=O)C3=O)cc1 (stereo not shown) [A83] | 27.2 ± 7.6 nM | 30 to 60%
35 | CN(CCn1c2ccccc2c2cccnc21)Cc1ccc(CNC(=O)c2ccc3c(c2)C(=O)N(C2CCC(=O)NC2=O)C3=O)cc1 (stereo not shown) [A84] | 13.1 ± 6.2 nM | 60 to 90%
